Measurements taken from patent US20040024024A1, “Aromatic sulfone hydroxamates and their use as protease inhibitors” (priority 2001, published 2004).

Key:
Type in all cases: biochemical
Human recombinant MMP-9 [1] = target: T1, Human recombinant MMP-9 (Homo sapiens, UniProt P14780); experiment: In vitro MMP inhibition, Ki determination (fluorogenic substrate II); conditions: value in parentheses
T1 construct: made in house; host or cells: MMP-9-transfected HT1080 cells (spent media)
Procedure: Several hydroxamates and salts thereof were analyzed in in vitro assays to determine their ability to inhibit the MMP cleavage of peptide substrates. Inhibition (Ki) and IC50 constants were calculated from the assayed hydroxamate-MMP interactions.
Human recombinant MMP-1, MMP-2, MMP-9, MMP-13, and MMP-14 were used in this assay. All enzymes were prepared in Assignee's laboratories following usual laboratory procedures. Protocols for the preparation and use of these enzymes are available in the scientific literature. See, e.g., Enzyme Nomenclature (Academic Press, San Diego, Calif., 1992) (and the citations therein). See also, Frije et al., J. Biol. Chem., 26(24), 16766-73 (1994).
The MMP-9 proenzyme was purified by gelatin Sepharose chromatography from spent media of MMP-9-transfected HT1080 cells provided by Dr. Howard Welgus of Washington University (St. Louis, Mo.).
All MMPs were activated using 4-aminophenylmercuric acetate (“APMA”, Sigma Chemical, St. Louis, Mo.) or trypsin. MMP-9 also was activated using human recombinant MMP-3 (purified in Assignee's laboratory following standard cloning and purification techniques).
Two fluorogenic, methoxycoumarin-containing polypeptide substrates were used in the MMP inhibition assays:
MCA-ArgProLeuGlyLeuDpaAlaArgGluArgNH2 (II)
Here, “Dpa” is 3-(2,4-dinitrophenyl)-L-2,3-diaminopropionyl group, and “MCA” is 7-methoxycoumarin-4-yl acetyl. Substrate (I) was purchased from Baychem (Redwood City, Calif.), and substrate II was prepared Assignee's laboratory. Substrate I was used in the IC50 determination assays, while substrate II was used in the Ki determination assays. In the absence of MMP inhibitory activity, either substrate is cleaved at the Gly-Leu peptide bond. This cleavage separates the highly fluorogenic peptide from the 2,4-dinitrophenyl quencher, thus resulting in increase of fluorescent intensity.
The stock solutions of the assayed hydroxamates (or salts thereof) were prepared in 1% dimethyl sulfoxide (DMSO). These stock solutions were diluted in Buffer A (100 mM Tris-HCl, 100 mM NaCl, 10 mM CaCl2, 0.05% polyoxyethylene 23 lauryl ether, pH 7.5) to obtain solutions with different hydroxamate concentrations, i.e., assay solutions with different concentrations of the assayed MMP inhibitory compound. The experiment controls contained the same amount of Buffer A/DMSO as the assayed sample, but contained no hydroxamate (or salt thereof).
The assays from which the Ki determinations were made were performed as follows. The assayed hydroxamate samples were incubated in separate wells of untreated white polystyrene plates (Nunc Nalgene International, Rochester, N.Y.), and analyzed on a Tecan SpectraFlour Plus plate reader. The excitation wavelength was 330 nm, and the emission wavelength—420 nm. All samples (assayed hydroxamates and controls) were incubated in separate plate wells at room temperature for 1 hr in the presence of 4 μM of MMP substrate (II). In the absence of MMP inhibitory activity, substrate II was cleaved at the Gly-Leu bond resulting in an increase of relative fluorescence. Inhibition was observed as a reduced rate of this increase in relative fluorescence. The various hydroxamates were analyzed using a single low enzyme concentration with a single substrate concentration fixed at or below the Km. This protocol is a modification of method by Knight et al., FEBS Lett., 296(3), 263-266 (1992). Apparent inhibitory constants were determined by non-linear regression of reaction velocity as a function of inhibitor and enzyme concentration using Morrison's equation, as described by Kuzmic, Anal. Biochem. 286, 45-50 (2000). Modifications were made in the non-linear regression method to allow a common control reaction rate and effective enzyme concentration to be shared between all dose-response relationships on a given assay plate. […]

Human recombinant MMP-1 = target: T2, Human recombinant MMP-1 (Homo sapiens, UniProt P03956); experiment: In vitro MMP inhibition, IC50 determination (fluorogenic substrate I); conditions: value outside parentheses
T2 construct: made in house; host or cells: MMP-1-transfected HT-1080 cells (spent media)
T2 sequence (P03956 100-469): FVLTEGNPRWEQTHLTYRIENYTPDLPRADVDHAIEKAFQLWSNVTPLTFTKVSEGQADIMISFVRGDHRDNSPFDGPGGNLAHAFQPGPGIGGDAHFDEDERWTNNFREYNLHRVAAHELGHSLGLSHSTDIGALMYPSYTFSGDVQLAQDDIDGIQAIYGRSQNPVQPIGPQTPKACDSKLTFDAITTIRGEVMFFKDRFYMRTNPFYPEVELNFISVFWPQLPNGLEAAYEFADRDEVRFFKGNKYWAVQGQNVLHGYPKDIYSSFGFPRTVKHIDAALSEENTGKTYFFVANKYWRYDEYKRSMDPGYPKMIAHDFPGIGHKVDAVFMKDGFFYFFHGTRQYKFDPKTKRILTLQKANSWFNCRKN
Summary of the method: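 Inhibitor dilutions were made in 100 mM Tris-HCl/100 mM NaCl/10 mM CaCl2 buffer, pH 7.5, and incubated at room temperature with activated proenzyme (from transfected HT-1080 media; APMA or trypsin) and 4 μM quenched methoxycoumarin peptide substrate. Loss of 415 nm fluorescence (328 nm excitation) against concentration gave IC50.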

Human recombinant MMP-9 [2] = target: T1, Human recombinant MMP-9; experiment: as above; conditions: value outside parentheses
Summary of the method: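 Reduction in fluorescence (328 nm excitation, 415 nm emission) from cleavage of 4 μM quenched peptide substrate I, measured at room temperature against inhibitor concentration, gave IC50. Enzyme: trypsin- or APMA-activated MMP-9 purified from transfected HT1080 medium; buffer 100 mM Tris, 100 mM NaCl, 10 mM CaCl2, pH 7.5.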

T1 sequence (P14780 107-707 limits assumed): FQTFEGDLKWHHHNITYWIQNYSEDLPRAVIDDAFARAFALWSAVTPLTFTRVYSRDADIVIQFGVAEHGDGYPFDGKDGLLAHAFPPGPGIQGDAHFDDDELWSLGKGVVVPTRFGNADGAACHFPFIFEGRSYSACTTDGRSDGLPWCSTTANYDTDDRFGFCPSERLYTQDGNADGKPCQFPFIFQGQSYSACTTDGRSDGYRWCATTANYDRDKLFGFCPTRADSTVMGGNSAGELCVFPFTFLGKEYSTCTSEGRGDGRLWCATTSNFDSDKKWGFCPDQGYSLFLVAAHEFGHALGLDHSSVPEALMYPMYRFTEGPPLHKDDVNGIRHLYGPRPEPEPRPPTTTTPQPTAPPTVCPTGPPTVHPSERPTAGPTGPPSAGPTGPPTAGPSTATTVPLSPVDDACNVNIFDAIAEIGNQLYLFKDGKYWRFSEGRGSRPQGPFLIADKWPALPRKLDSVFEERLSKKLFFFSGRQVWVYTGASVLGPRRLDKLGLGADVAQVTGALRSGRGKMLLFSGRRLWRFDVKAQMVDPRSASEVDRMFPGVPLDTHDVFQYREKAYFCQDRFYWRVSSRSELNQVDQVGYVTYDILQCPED

## O=C(NO)C1(S(=O)(=O)c2ccc(OCCCc3cncc(-c4ccc(F)cc4)c3)cc2)CCOCC1 [Example 523]
Human recombinant MMP-9 [1]
  Ki: 1250 nM
Human recombinant MMP-1
  IC50: 8.07 µM
Human recombinant MMP-9 [2]
  IC50: 1650 nM

## O=C(NO)C1(S(=O)(=O)c2ccc(OCCCc3cncc(-c4ccccc4)c3)cc2)CCOCC1 [Example 524]
Human recombinant MMP-9 [1]
  Ki: 739 nM
Human recombinant MMP-1
  IC50: > 10 µM
Human recombinant MMP-9 [2]
  IC50: 1840 nM

## O=C(NO)C1(S(=O)(=O)c2ccc(OCCCc3cc(-c4ccc(F)cc4F)cs3)cc2)CCOCC1 [Example 587]
Human recombinant MMP-9 [1]
  Ki: 8180 nM
Human recombinant MMP-1
  IC50: > 10 µM
Human recombinant MMP-9 [2]
  IC50: 1370 nM

## CCN1CCC(C(=O)NO)(S(=O)(=O)c2ccc(OCCCSc3nc4ccccc4s3)cc2)CC1 [Example 591]
Human recombinant MMP-9 [1]
  Ki: 4.22 nM
Human recombinant MMP-1
  IC50: > 10 µM
Human recombinant MMP-9 [2]
  IC50: 12 nM

## O=C(NO)C1(S(=O)(=O)c2ccc(OCCCc3cccc(-c4cccs4)c3)cc2)CCOCC1 [Example 595]
Human recombinant MMP-9 [1]
  Ki: 2060 nM
Human recombinant MMP-1
  IC50: > 10 µM
Human recombinant MMP-9 [2]
  IC50: 1730 nM

## O=C(Cc1csc2ccccc12)NCCOc1ccc(S(=O)(=O)C2(C(=O)NO)CCOCC2)cc1 [Example 596]
Human recombinant MMP-9 [1]
  Ki: 308 nM
Human recombinant MMP-1
  IC50: > 10 µM
Human recombinant MMP-9 [2]
  IC50: 194 nM

## O=C(NCCOc1ccc(S(=O)(=O)C2(C(=O)NO)CCOCC2)cc1)c1cc2ccccc2[nH]1 [Example 599]
Human recombinant MMP-9 [1]
  Ki: 11.3 nM
Human recombinant MMP-1
  IC50: > 10 µM
Human recombinant MMP-9 [2]
  IC50: 11.6 nM

## O=C(NO)C1(S(=O)(=O)c2ccc(OCCCc3cc(-c4ccc(OC(F)(F)F)cc4)cs3)cc2)CCOCC1 [Example 608]
Human recombinant MMP-9 [1]
  Ki: 1370 nM
Human recombinant MMP-1
  IC50: > 10 µM
Human recombinant MMP-9 [2]
  IC50: 1790 nM

## N#Cc1ccc(-c2cccc(CCCOc3ccc(S(=O)(=O)C4(C(=O)NO)CCOCC4)cc3)c2)cc1 [Example 624]
Human recombinant MMP-9 [1]
  Ki: 443 nM
Human recombinant MMP-1
  IC50: > 10 µM
Human recombinant MMP-9 [2]
  IC50: 1030 nM

## O=C(NO)C1(S(=O)(=O)c2ccc(OCCCc3cccc(-c4ccc([N+](=O)[O-])cc4)c3)cc2)CCOCC1 [Example 626]
Human recombinant MMP-9 [1]
  Ki: 1100 nM
Human recombinant MMP-1
  IC50: > 10 µM
Human recombinant MMP-9 [2]
  IC50: 885 nM

## O=C(NO)C1(S(=O)(=O)c2ccc(OCCCc3cccc(-c4ccc5c(c4)OCO5)c3)cc2)CCOCC1 [Example 628]
Human recombinant MMP-9 [1]
  Ki: 1930 nM
Human recombinant MMP-1
  IC50: > 10 µM
Human recombinant MMP-9 [2]
  IC50: 1750 nM

## O=C(NO)C1(S(=O)(=O)c2ccc(OCCCc3cccc(-c4ccc(F)cc4F)c3)cc2)CCOCC1 [Example 630]
Human recombinant MMP-9 [1]
  Ki: 2280 nM
Human recombinant MMP-1
  IC50: > 10 µM
Human recombinant MMP-9 [2]
  IC50: 5990 nM

## O=C(NO)C1(S(=O)(=O)c2ccc(OCCCc3cccc(-c4ccsc4)c3)cc2)CCOCC1 [Example 632]
Human recombinant MMP-9 [1]
  Ki: 716 nM
Human recombinant MMP-1
  IC50: > 10 µM
Human recombinant MMP-9 [2]
  IC50: 411 nM

## O=C(NO)C1(S(=O)(=O)c2ccc(OCCCc3cccc(-c4ccoc4)c3)cc2)CCOCC1 [Example 637]
Human recombinant MMP-9 [1]
  Ki: 881 nM
Human recombinant MMP-1
  IC50: > 10 µM
Human recombinant MMP-9 [2]
  IC50: 830 nM
